Publication PMC11288129, “Diversely evolved xibalbin variants from remipede venom inhibit potassium channels and activate PKA-II and Erk1/2 signaling” (BMC Biology, 2024)
Entries after “also recorded” stand apart in the source; their conditions may differ. Marks after values point to notes of the source that are not given here. Positions of bridges follow the written chain, without caps; N, C: chain ends. No end group written: not given here.

Experiments:
[1] = test system: hNav1.5; assay: TEVC current-voltage relationship (Vhalf), Nav1.5; type: cell-based, human; parameters: Vhalf, toxin inactivation, Nav1.5 / Vhalf, toxin activation, Nav1.5: unit not given here; conditions: for Vhalf, toxin activation, Nav1.5 / Vhalf, toxin inactivation, Nav1.5: 1 µM
Source text: (§1) For the expression of Kv channels rat Kv1.1 (GenBank accession number: NM_173095 [88, 89]), rKv1.2 (NM_012970 [90, 91]), human Kv1.3 (NM_002232 [92, 93]), rKv1.4 (NM_012971 [94, 95]), rKv1.6 (NM_023954 [96, 97]), hKv2.1 (NM_004975 [98, 99]), hKv3.1 (NM_004976 [100, 101]), rKv4.2 (NM_031739 [102, 103]), hKv10.1 (NM_172362 [104, 105]), hERG1 [Kv11.1, (NM_000238 [106, 107])], and Shaker IR [from Drosophila melanogaster, (NM_167595 [108, 109])], Nav channels [rNav1.2 (NM_012647 [42, 110]), rNav1.4 (NM_013178 [111, 112]), hNav1.5 (NM_198056 [113, 114]), mNav1.6 (NM_001077499 [115, 116]), BgNav [from Blattella germanica, (DQ466887 [117, 118])] and the auxiliary subunits rβ1 (NM_001271045 [119, 120]), hβ1 (NM_001037 [121, 122]), and TipE [from D. melanogaster, (NM_079196 [109, 123])], and Cav channels hCav3.1 [124, 125], hCav3.2 [126, 127], and hCav3.3 [128, 129] in Xenopus oocytes, the linearized plasmids were transcribed using the T7 or SP6 mMESSAGEmMACHINE transcription kit (Ambion, Austin, TX, USA). Mature female animals were purchased from Nasco (Fort Atkinson, USA) and were housed in the Aquatic Facility (KU Leuven) in compliance with the regulations of the European Union (EU) concerning the welfare of laboratory animals as declared in Directive 2010/63/EU. The use of X. laevis oocytes was approved by the Animal Ethics Committee of the KU Leuven with the license number P186/2019. Stage V–VI oocytes were collected from anesthetized female X. laevis frog as previously described, with the frogs anesthetized by placement in 0.1% tricaine solution (amino benzoic acid ethyl ester; Merck, USA). Oocyte microinjection was performed using a microinjector (Drummond Scientifc®, USA), with a programmed cRNA injection volume of 4—50 nL, depending on the channel subtype. The oocytes were incubated in ND96 solution (96 mM NaCl, 2 mM KCl, 1.8 mM CaCl2, 2 mM MgCl2, and 5 mM HEPES, pH 7.4), supplemented with 50 mg/l gentamicin sulfate.
(§2) Electrophysiological measurements were performed at room temperature (18–22 °C) using the two-electrode voltage clamp (TEVC) technique. Data were obtained using a GeneClamp 500 amplifier (Axon Instruments, USA), and Clampex9 software (Axon Instruments), responsible for data acquisition and storage. Glass micropipettes were produced using glass capillaries (borosilicate WPI 1B120-6) and drawn in a WPI (World Precision Instruments, USA) manual stretcher. The bath and perfusion solutions were either the previously described ND96 (Nav and Kv channels) or calcium-free ND96 supplemented with 10 mM BaCl2 (Cav channels).
(§3) Whole-cell currents of oocytes were recorded 1 to 3 days after injection. Current and voltage electrodes were filled with 3 M KCl and their resistance was adjusted from 0.7 to 2.0 MΩ. Currents were sampled at 20 kHz (Nav channels) and 10 kHz (Kv and Cav channels) and filtered using a four-pole Bessel low-pass Bessel filter, at 1 kHz for sodium, and […] for potassium and calcium, except for the hERG ion channel, in which the currents were filtered at 1 kHz. Leak subtraction was performed using a -P/4 protocol. Kv1.x currents were evoked by 500 ms depolarizations to 0 mV followed by a 500-ms pulse to − 50 mV, from a holding potential of − 90 mV. Kv2.1, Kv3.1, and Kv4.2 currents were elicited by 500 ms pulses to + 20 mV from a holding potential of − 90 mV. Current traces of Kv10.1 were elicited by 2 s depolarization to 0 mV, from a holding potential of − 90 mV. Current traces of hERG1 channel were elicited by applying a + 40 mV prepulse for 2 s followed by a step of − 120 mV for 2 s. Sodium current traces were evoked by a 100 ms depolarization to 0 mV, from a holding potential of − 90 mV. The current–voltage (IV) relationships were determined by 100-ms step depolarizations between − 90 and + 40 mV, using 5 mV increments. […]

[2] = test system: rKv1.6; assay: TEVC inhibition, Kv1.6; type: cell-based, rat; conditions: 1 µM
Source text: as §1, §2, §3

[3] = test system: Shaker IR; assay: TEVC inhibition, Shaker IR; type: cell-based, Drosophila melanogaster; parameters: unit not given here; conditions: 1 µM
Source text: as §1, §2, §3

[4] = test system: voltage-gated potassium channels (Kvs); assay: TEVC on panel of voltage-gated potassium channels; type: cell-based; conditions: 1 µM
Source text: (§4) For the expression of Kv channels rat Kv1.1 (GenBank accession number: NM_173095 [88, 89]), rKv1.2 (NM_012970 [90, 91]), human Kv1.3 (NM_002232 [92, 93]), rKv1.4 (NM_012971 [94, 95]), rKv1.6 (NM_023954 [96, 97]), hKv2.1 (NM_004975 [98, 99]), hKv3.1 (NM_004976 [100, 101]), rKv4.2 (NM_031739 [102, 103]), hKv10.1 (NM_172362 [104, 105]), hERG1 [Kv11.1, (NM_000238 [106, 107])], and Shaker IR [from Drosophila melanogaster, (NM_167595 [108, 109])], Nav channels [rNav1.2 (NM_012647 [42, 110]), rNav1.4 (NM_013178 [111, 112]), hNav1.5 (NM_198056 [113, 114]), mNav1.6 (NM_001077499 [115, 116]), BgNav [from Blattella germanica, (DQ466887 [117, 118])] and the auxiliary subunits rβ1 (NM_001271045 [119, 120]), hβ1 (NM_001037 [121, 122]), and TipE [from D. melanogaster, (NM_079196 [109, 123])], and Cav channels hCav3.1 [124, 125], hCav3.2 [126, 127], and hCav3.3 [128, 129] in Xenopus oocytes, the linearized plasmids were transcribed using the T7 or SP6 mMESSAGEmMACHINE transcription kit (Ambion, Austin, TX, USA). […]
(§5) Whole-cell currents of oocytes were recorded 1 to 3 days after injection. […] The current–voltage (IV) relationships were determined by 100-ms step depolarizations between − 90 and + 40 mV, using 5 mV increments. […]

[5] = test system: Kv1.1; assay: TEVC inhibition, Kv1.1; type: cell-based, rat; parameters: Inhibition data, Kv1.1: unit not given here; conditions: 1 µM
Source text: as §1, §2, §3

[6] = test system: hKv3.1; assay: TEVC inhibition, Kv3.1; type: cell-based, human; parameters: unit not given here; conditions: 1 µM
Source text: as §1, §2, §3

[7] = test system: voltage-gated sodium channels (Nav); assay: TEVC on panel of voltage-gated sodium channels; type: cell-based; conditions: 1 µM
Source text: as §4, §5

[8] = test system: rNav1.4; assay: TEVC current-voltage relationship (Vhalf), Nav1.4; type: cell-based, rat; parameters: Vhalf, toxin inactivation, Nav1.4 / Vhalf, toxin activation, Nav1.4: unit not given here; conditions: for Vhalf, toxin activation, Nav1.4 / Vhalf, toxin inactivation, Nav1.4: 1 µM
Source text: as §1, §2, §3

RLFCIRHHKYCGHRPKRCCSGLFCRCNTFGTNCRCQSKGALGKLI (disulfide 4-19, 11-24, 18-35, 26-33) [xib1]
Vhalf inactivation shift, Nav1.5 ([1]; 1 µM versus control (ND96)): 1.5 mV | Vhalf, toxin activation, Nav1.5 ([1]; replicate 1): -27.2261 | Vhalf, toxin inactivation, Nav1.5 ([1]; replicate 1): -60.2865 | Vhalf, toxin activation, Nav1.5 ([1]; replicate 2): -20.8548 | Vhalf, toxin inactivation, Nav1.5 ([1]; replicate 2): -53.6522 | Vhalf, toxin activation, Nav1.5 ([1]; replicate 3): -24.2578 | Vhalf, toxin inactivation, Nav1.5 ([1]; replicate 3): -54.899 | Vhalf, toxin activation, Nav1.5 ([1]; replicate 4): -22.0356 | Vhalf, toxin inactivation, Nav1.5 ([1]; replicate 4): -51.823 | Inhibition data, Kv1.6 ([2]; replicate 1): 80.8 | Inhibition data, Kv1.6 ([2]; replicate 2): 59.7 | Inhibition data, Kv1.6 ([2]; replicate 3): 81.8 | Inhibition data, Kv1.6 ([2]; replicate 4): 80.2 | Inhibition data, Shaker ([3]; replicate 1): 0.0 | Inhibition data, Shaker ([3]; replicate 2): 0.0 | Inhibition data, Shaker ([3]; replicate 3): 0.0 | Inhibition data, Shaker ([3]; replicate 4): 0.0 | inhibition of voltage-gated potassium channels [4]: potent inhibition | inhibition of Kv1.1 [5]: inhibit especially Kv1.1 channels | Inhibition data, Kv1.1 ([5]; replicate 1): 76.3 | Inhibition data, Kv1.1 ([5]; replicate 2): 66.2 | Inhibition data, Kv1.1 ([5]; replicate 3): 76.2 | Inhibition data, Kv1.1 ([5]; replicate 4): 75.3 | Inhibition data, Kv3.1 ([6]; replicate 1): 0.0 | Inhibition data, Kv3.1 ([6]; replicate 2): 0.0 | Inhibition data, Kv3.1 ([6]; replicate 3): 0.0 | Inhibition data, Kv3.1 ([6]; replicate 4): 0.0 | inhibition of voltage-gated sodium channels [7]: inhibit voltage-gated sodium channels; also recorded: mild inhibition | Vhalf, toxin activation, Nav1.4 ([8]; replicate 1): -19.1826 | Vhalf, toxin inactivation, Nav1.4 ([8]; replicate 1): -47.3987 | Vhalf, toxin activation, Nav1.4 ([8]; replicate 2): -12.5775 | Vhalf, toxin inactivation, Nav1.4 ([8]; replicate 2): -44.7262 | Vhalf, toxin activation, Nav1.4 ([8]; replicate 3): -17.1419 | Vhalf, toxin inactivation, Nav1.4 ([8]; replicate 3): -46.0496

KRSCIRRFGRCDHRPNDCCYNSSCRCNLWGSNCRCQRMGLFQKWGK (disulfide 4-19, 11-24, 18-35, 26-33) [xib13]
Vhalf activation shift, Nav1.5 ([1]; 1 µM versus control (ND96)): 5.9*** mV | Vhalf, toxin activation, Nav1.5 ([1]; replicate 1): -22.7699 | Vhalf, toxin inactivation, Nav1.5 ([1]; replicate 1): -59.4076 | Vhalf, toxin activation, Nav1.5 ([1]; replicate 2): -23.9735 | Vhalf, toxin inactivation, Nav1.5 ([1]; replicate 2): -59.2524 | Vhalf, toxin activation, Nav1.5 ([1]; replicate 3): -25.0967 | Vhalf, toxin inactivation, Nav1.5 ([1]; replicate 3): -59.4209 | Inhibition data, Kv1.6 ([2]; replicate 1): 81.2 | Inhibition data, Kv1.6 ([2]; replicate 2): 87.8 | Inhibition data, Kv1.6 ([2]; replicate 3): 79.9 | Inhibition data, Shaker ([3]; replicate 1): 0.0 | Inhibition data, Shaker ([3]; replicate 2): 0.0 | Inhibition data, Shaker ([3]; replicate 3): 0.0 | Inhibition data, Shaker ([3]; replicate 4): 0.0 | inhibition of voltage-gated potassium channels [4]: potent inhibition; also recorded: most significant inhibition rates | inhibition of Kv1.1 [5]: inhibit especially Kv1.1 channels | Inhibition data, Kv1.1 ([5]; replicate 1): 83.4 | Inhibition data, Kv1.1 ([5]; replicate 2): 86.7 | Inhibition data, Kv1.1 ([5]; replicate 3): 85.0 | Inhibition data, Kv1.1 ([5]; replicate 4): 83.1 | Inhibition data, Kv3.1 ([6]; replicate 1): 0.0 | Inhibition data, Kv3.1 ([6]; replicate 2): 0.0 | Inhibition data, Kv3.1 ([6]; replicate 3): 0.0 | Inhibition data, Kv3.1 ([6]; replicate 4): 0.0 | inhibition of voltage-gated sodium channels [7]: inhibit voltage-gated sodium channels; also recorded: mild inhibition; also recorded: most significant inhibition rates | Vhalf activation shift, Nav1.4 ([8]; 1 µM versus control (ND96)): 3.4 mV | Vhalf, toxin activation, Nav1.4 ([8]; replicate 1): -16.1478 | Vhalf, toxin inactivation, Nav1.4 ([8]; replicate 1): -45.0612 | Vhalf, toxin activation, Nav1.4 ([8]; replicate 2): -15.8394 | Vhalf, toxin inactivation, Nav1.4 ([8]; replicate 2): -52.747 | Vhalf, toxin activation, Nav1.4 ([8]; replicate 3): -14.4257 | Vhalf, toxin inactivation, Nav1.4 ([8]; replicate 3): -47.6866
